Experimental data from patent US20210161866A1, “DRUG FOR USE IN COMBINATION, AND USE THEREOF FOR PREPARING DRUGS FOR TREATMENT OF HIGH-GRADE BRAIN TUMORS IN RESPONSE TO INEFFECTIVE STANDARD TREATMENT FOR POSTOPERATIVE RECURRENCE” (SICHUAN JIUZHANG BIOLOGICAL SCIENCE AND TECHNOLOGY CO., LTD., priority 2018, published 2021).

Tests used:
[1] = tested on: high-grade anaplastic astrocytoma that relapsed after surgery and on which the standard therapy failed; test: Tumor inhibition rate in animal model of high-grade anaplastic astrocytoma; type: in vivo, rats; details: for Tumor inhibition rate (%) / Tumor weight: 5th day after drug-withdrawal
Procedure: (§1) 1.1 Cell culture: The pathological tissue for cell culture was a tissue sample removed surgically from high-grade brain tumor that relapsed after surgery and on which the standard therapy failed. Glioblasts cells, high-grade anaplastic astrocytoma cells, high-grade anaplastic oligodendrocytoma cells, high-grade anaplastic oligoastrocytoma cells, and brain tumor cells with unclear pathological types, obtained by separation and culture of pathological tissue, were seeded in DMEM complete culture medium containing 10% FBS and routinely incubated in a 37° C., 5% carbon dioxide incubator under saturated humidity. TMZ was dissolved in DMSO solution, and the mass concentration of the stock solution was 100 mg/mL. Tumor cells in the logarithmic growth phase were diluted to obtain a cell suspension at 1×10^5 cells/mL, and the initial inducer dose 0.25 μg/mL of TMZ was added after routinely culturing for 24 h. The culture was continued for 15-20 days, and after stabilization of cell growth, the induced concentration of the drug was doubled, then the cells were further cultured for 15-20 d at each induced concentration. Thus, the final concentration of TMZ was 16.00 μg/mL, and various pathological types of cell suspensions were obtained.
(§2) The cell suspension obtained in step 1 was inoculated into rats in situ, to prepare animal models of high-grade anaplastic astrocytoma that relapsed after surgery and on which the standard therapy failed, and the animals were divided into test groups listed in the following table. […] On the 5th day after drug-withdrawal, the size of the in situ tumor in the rat brain was observed, and the tumor was weighed. The tumor inhibition rate was calculated.

[2] = tested on: high-grade anaplastic oligodendrocytoma that relapsed after surgery and on which the standard therapy failed; test: Tumor inhibition rate in animal model of high-grade anaplastic oligodendrocytoma; type: in vivo, rats; details: for Tumor inhibition rate (%) / Tumor weight: 5th day after drug-withdrawal
Procedure: as §1
(§3) The cell suspension obtained in step 1 was inoculated into rats in situ, to prepare animal models of high-grade anaplastic oligodendrocytoma that relapsed after surgery and on which the standard therapy failed, and the animals were divided into test groups listed in the following table. […] The tumor inhibition rate was calculated.

[3] = tested on: high-grade glioma relapsed after failure of standard treatment; test: Clinical trial of chlorogenic acid for injection, effectiveness by RANO standard and survival; type: in vivo, patients
Procedure: A total of 23 subjects completed the test in this trial, including 5 patients with grade III gliomas and 18 patients with grade IV gliomas. […] The subjects included in this trial were all patients with high-grade glioma who relapsed after surgery and didn't response to the standard therapy. The standard treatment was chemotherapy and radiotherapy. […] Ineffective means tumor progression. […] The effectiveness evaluation was performed according to the RANO standard, and the specific RANO standards are as follows: [table] […] A total of 26 subjects were enrolled in the trial, 3 cases were released early, and 23 cases can be counted: […]

[4] = tested on: high-grade anaplastic oligoastrocytoma that relapsed after surgery and on which the standard therapy failed; test: Tumor inhibition rate in animal model of high-grade anaplastic oligoastrocytoma; type: in vivo, rats; details: for Tumor inhibition rate (%) / Tumor weight: 5th day after drug-withdrawal
Procedure: as §1
as §3, with “oligoastrocytoma” for “oligodendrocytoma”

[5] = tested on: glioblastoma that relapsed after surgery and on which the standard therapy failed; test: Tumor inhibition rate in animal model of glioblastoma; type: in vivo, rats; details: for Tumor inhibition rate (%) / Tumor weight: 5th day after drug-withdrawal
Procedure: as §1
as §3, with “glioblastoma” for “high-grade anaplastic oligodendrocytoma”

[6] = tested on: brain tumor with unclear pathological types that relapsed after surgery and on which the standard therapy failed; test: Tumor inhibition rate in animal model of brain tumors with unclear pathological types; type: in vivo, rats; details: for Tumor inhibition rate (%) / Tumor weight: 5th day after drug-withdrawal
Procedure: as §1
as §2, with “brain tumor with unclear pathological types” for “high-grade anaplastic astrocytoma”

[7] = dose 35 mg/kg i.p. daily 10 days

With `O=C(/C=C/c1ccc(O)c(O)c1)O[C@@H]1C[C@](O)(C(=O)O)C[C@@H](O)[C@H]1O` [Chlorogenic acid, chlorogenic acid] the “Tumor inhibition rate (%)” value [1, 7] was 50.2%, the Tumor weight [1, 7] was 1.12 ± 0.10 and the “therapeutic effect in words” value ([1]; summary of the anaplastic astrocytoma model table) was “significant inhibitory effect”. The “Tumor inhibition rate (%)” value [2, 7] was 52.6%, the “therapeutic effect in words” value ([2]; summary of the anaplastic oligodendrocytoma model table) was “significant inhibitory effect” and the response rate ([3]; 9 survival subjects with grade IV glioblastoma, 1 cycle) was 88.9%. For the same compound, the response rate ([3]; nine dead subjects with grade IV glioma, one cycle) was 11.1%, the “Tumor inhibition rate (%)” value [4, 7] was 47.0% and the “therapeutic effect in words” value ([4]; summary of the anaplastic oligoastrocytoma model table) was “significant inhibitory effect”. For the same compound, the “Tumor inhibition rate (%)” value [5, 7] was 52.2%, the “therapeutic effect in words” value ([5]; summary of the glioblastoma model table) was “significant inhibitory effect” and the “Tumor inhibition rate (%)” value [6, 7] was 44.5%. For the same compound, the Tumor weight [6, 7] was 1.21 ± 0.11 and the “therapeutic effect in words” value ([6]; summary of the table for brain tumors with unclear pathological types) was “significant inhibitory effect”.
For `Cn1nnc2c(C(N)=O)ncn2c1=O` [temozolomide], the “Tumor inhibition rate (%)” value ([1]; dose 10 mg/kg oral 5 days) was 13.3%, the Tumor weight ([1]; dose 10 mg/kg oral 5 days) was 1.95 ± 0.18 and the “Tumor inhibition rate (%)” value ([1]; dose 20 mg/kg oral 5 days) was 20.9%. The Tumor weight ([1]; dose 20 mg/kg oral 5 days) was 1.78 ± 0.11, the “Tumor inhibition rate (%)” value ([2]; dose 10 mg/kg oral 5 days) was 15.5% and the Tumor weight ([2]; dose 10 mg/kg oral 5 days) was 1.80 ± 0.15. For the same compound, the “Tumor inhibition rate (%)” value ([2]; dose 20 mg/kg oral 5 days) was 22.5%, the Tumor weight ([2]; dose 20 mg/kg oral 5 days) was 1.65 ± 0.14 and the “Tumor inhibition rate (%)” value ([4]; dose 10 mg/kg oral 5 days) was 13.1%. The Tumor weight ([4]; dose 10 mg/kg oral 5 days) was 1.72 ± 0.14, the “Tumor inhibition rate (%)” value ([4]; dose 20 mg/kg oral 5 days) was 20.2% and the Tumor weight ([4]; dose 20 mg/kg oral 5 days) was 1.58 ± 0.12. The “Tumor inhibition rate (%)” value ([5]; dose 10 mg/kg oral 5 days) was 14.6%, the Tumor weight ([5]; dose 10 mg/kg oral 5 days) was 1.75 ± 0.14 and the “Tumor inhibition rate (%)” value ([5]; dose 20 mg/kg oral 5 days) was 24.1%. For the same compound, the Tumor weight ([5]; dose 20 mg/kg oral 5 days) was 1.54 ± 0.10, the “Tumor inhibition rate (%)” value ([6]; dose 10 mg/kg oral 5 days) was 16.0% and the Tumor weight ([6]; dose 10 mg/kg oral 5 days) was 1.83 ± 0.13. The “Tumor inhibition rate (%)” value ([6]; dose 20 mg/kg oral 5 days) was 25.7% and the Tumor weight ([6]; dose 20 mg/kg oral 5 days) was 1.62 ± 0.14.
